Source: ChEMBL document CHEMBL1201862, “PubChem BioAssay data set” (2004)
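Cells were grown in 96-well plates and exposed to each compound for 48 hours at five concentrations; endpoints were interpolated linearly between bracketing concentrations, or set to the highest concentration if not reached. GI50 is the concentration that inhibits growth by half.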 The source made the active and inactive calls. Rule as the data show it: active = GI50 up to about 1.1 µM and inactive = higher.

How the values were obtained:
Test in all cases: NCI tumour cell line growth inhibition, 48 h
XF498 = system: XF498
LXFL 529 = system: LXFL 529
SNB-78 = system: SNB-78
M19-MEL = system: M19-MEL
RXF 631 = system: RXF 631
HOP-18 = system: HOP-18
DMS-273 = system: DMS-273
T47D = system: T47D
PC-3 = system: PC-3

Measured: GI50

C/C(=N/NC(=O)CC(=O)N(C(=O)c1ccccc1Cl)c1ccc(C)cc1)c1cc2ccccc2oc1=O
inactive: XF498 > 100 µM | LXFL 529 > 100 µM | SNB-78 > 100 µM | M19-MEL > 100 µM | RXF 631 > 100 µM | HOP-18 > 100 µM | DMS-273 > 100 µM

O=C(NCCCOC(=O)CCCCCCCCC(=O)OCCCNC(=O)NC(=O)c1c[nH]c(=O)[nH]c1=O)NC(=O)c1c[nH]c(=O)[nH]c1=O
inactive: XF498 > 100 µM | LXFL 529 > 100 µM | SNB-78 > 100 µM | M19-MEL > 100 µM | RXF 631 > 100 µM | HOP-18 1.49 µM | DMS-273 > 100 µM

COc1ccc2c(c1)CCCN2CCCCCCCCCCN(CCC(C)C)CCC(C)C
inactive: XF498 7.89 µM | LXFL 529 10.2 µM | SNB-78 16.8 µM | M19-MEL 15.3 µM | RXF 631 8.87 µM | HOP-18 12.1 µM | DMS-273 10.1 µM

Cc1cccc(C)c1NC(=O)CCc1nnc2s/c(=C\c3ccc(N(C)C)cc3)c(=O)n12
inactive: XF498 > 100 µM | LXFL 529 > 100 µM | SNB-78 > 100 µM | RXF 631 > 100 µM | DMS-273 > 100 µM

CCOC(=O)C(=C=C=C(c1ccccc1)c1ccccc1)C(=O)OCC
inactive: XF498 15.1 µM | LXFL 529 16.9 µM | SNB-78 16.9 µM | M19-MEL 18.4 µM | RXF 631 24 µM | DMS-273 20.3 µM

Brc1nc2c3ccccc3ncn2c1Br
inactive: XF498 25.8 µM | LXFL 529 29.9 µM | SNB-78 36.7 µM | M19-MEL 33.5 µM | RXF 631 39.4 µM | HOP-18 14.4 µM | DMS-273 30.8 µM

O=S(OC12CC3CC(CC(C3)C1)C2)c1cc(Cl)cc(Cl)c1OCc1ccccc1 (stereo unspecified)
inactive: XF498 > 100 µM | LXFL 529 > 100 µM | SNB-78 > 100 µM | M19-MEL > 100 µM | RXF 631 > 100 µM

COC(=O)NNc1c([N+](=O)[O-])cnn(-c2ccccc2)c1=O
inactive: LXFL 529 1.73 µM | M19-MEL 1.87 µM | RXF 631 2.08 µM | HOP-18 2.82 µM | T47D 2.21 µM | PC-3 1.79 µM | DMS-273 1.98 µM

CC1=C(C(=O)Nc2ccc(Cl)c(Cl)c2)C(c2ccc([N+](=O)[O-])cc2)C(C(=O)Nc2ccc(Cl)c(Cl)c2)=C(C)N1
inactive: XF498 1.44 µM | LXFL 529 2.77 µM | SNB-78 2.82 µM | M19-MEL 1.82 µM | RXF 631 2.04 µM | HOP-18 3.6 µM | DMS-273 2.91 µM

O=C1CC2C(=O)N(Cc3ccccc3)C1C(S(=O)(=O)c1ccccc1)C2S(=O)(=O)c1ccccc1 (stereo unspecified)
inactive: XF498 1.86 µM | LXFL 529 1.31 µM | SNB-78 11.2 µM | M19-MEL 2.06 µM | RXF 631 12.5 µM | HOP-18 3.78 µM | DMS-273 5.46 µM

CCOC(=O)C1Nc2ccc([N+](=O)[O-])cc2[C@H]2OCC[C@@H]12 (stereo partly specified)
inactive: XF498 > 100 µM | SNB-78 > 100 µM | M19-MEL > 100 µM | RXF 631 > 100 µM | HOP-18 > 100 µM | DMS-273 > 100 µM

FC(F)(F)C1(Cl)C(Cl)(c2ccccc2)C1(Cl)c1ccccc1 (stereo unspecified)
inactive: XF498 15.7 µM | LXFL 529 16.3 µM | SNB-78 17.8 µM | M19-MEL 15.6 µM | HOP-18 11.1 µM | DMS-273 14.9 µM

COc1ccc(/C(Cl)=C(\C=O)c2ccc(Cl)c(Cl)c2)cc1
inactive: XF498 10.8 µM | LXFL 529 5.81 µM | SNB-78 11 µM | M19-MEL 13.1 µM | HOP-18 14.7 µM | DMS-273 13.1 µM

CC(=O)O[C@H]1C=CC(=O)C(C)CC1C (stereo partly specified)
inactive: XF498 > 100 µM | LXFL 529 > 100 µM | SNB-78 > 100 µM | M19-MEL > 100 µM | RXF 631 > 100 µM | DMS-273 > 100 µM

Cc1c(N(C)C)ccc2c(=O)c3cccc(CC(=O)O)c3oc12
inactive: SNB-78 > 100 µM | M19-MEL > 100 µM | RXF 631 > 100 µM | HOP-18 > 100 µM | T47D > 100 µM | PC-3 > 100 µM | DMS-273 > 100 µM
